Source: patent US20180207099A1, “NON-[…] FOR THE MIC[…] DIGOXIN” (priority 2015, published 2018)

Assay: Particle size of micronized digoxin obtained by the non-mechanical process
Assay type: physicochemical
Settings: for >90% of the particles (number distribution); digoxin precipitated per Example 1
Description: The digoxin thus obtained has a high purity and is ready to be incorporated in the usual pharmaceutical formulations, typically tablets; it has particle size of 20-30 micrometers for at least 90% of the particles, and is exempt from degradation products, as evident by a wholly neutral colour, and further confirmable analytically. In the present invention, the particle size distribution is meant as “number distribution” (thus not “volume distribution” or “mass distribution”); accordingly, any expressions of the type “x-y micrometers for at least m % of the particles” describes a particle distribution characterized in that at least m % of the number of particles making up the product have a size comprised between x and y micrometers; relevant particle size values can be measured by usual techniques, including laser diffraction, dynamic light scattering, dynamic image analysis, suitably equipped with data processing systems. The obtained digoxin can be formulated with common excipients. Suitable excipients are cellulose products like microcrystalline cellulose, cellulose ethers like methylcellulose, ethylcellulose, hydroxyethylcellulose, crosslinked polymers (e.g. polyplasdone XL, hyaluronic acid or alginic acid cross-linked with urea), gums from plants, etc. Common diluents like mannitol, fructose, as well as compression aids like magnesium stearate, can also be used. […]

C[C@H]1O[C@@H](O[C@H]2[C@@H](O)C[C@H](O[C@H]3[C@@H](O)C[C@H](O[C@H]4CC[C@@]5(C)[C@H](CC[C@@H]6[C@@H]5C[C@@H](O)[C@]5(C)[C@@H](C7=CC(=O)OC7)CC[C@]65O)C4)O[C@@H]3C)O[C@@H]2C)C[C@H](O)[C@@H]1O [digoxin]
particle size: 20-30 micrometers
